Data: ChEMBL document CHEMBL6127128, “Discovery of the First-in-Class Dual-Target ROCK/HDAC Inhibitor with Potent Antitumor Efficacy in Vivo That Trigger Antitumor Immunity” (J Med Chem, 2024)
Calls of active or inactive are those of the source. The rule behind the calls is not given here.

What was measured:
Histone deacetylase 7 = target: T1, Histone deacetylase 7 (Homo sapiens, UniProt Q8WUI4); assay: Inhibition of HDAC7 (unknown origin) using Ac-Leu-Gly-Lys(tfa)-AMC as substrate preincubated for 5 mins followed by substrate addition for 30 mins and measured following trypsin addition for 30 mins by fluorescence based analysis
T1 sequence (Q8WUI4 whole entry): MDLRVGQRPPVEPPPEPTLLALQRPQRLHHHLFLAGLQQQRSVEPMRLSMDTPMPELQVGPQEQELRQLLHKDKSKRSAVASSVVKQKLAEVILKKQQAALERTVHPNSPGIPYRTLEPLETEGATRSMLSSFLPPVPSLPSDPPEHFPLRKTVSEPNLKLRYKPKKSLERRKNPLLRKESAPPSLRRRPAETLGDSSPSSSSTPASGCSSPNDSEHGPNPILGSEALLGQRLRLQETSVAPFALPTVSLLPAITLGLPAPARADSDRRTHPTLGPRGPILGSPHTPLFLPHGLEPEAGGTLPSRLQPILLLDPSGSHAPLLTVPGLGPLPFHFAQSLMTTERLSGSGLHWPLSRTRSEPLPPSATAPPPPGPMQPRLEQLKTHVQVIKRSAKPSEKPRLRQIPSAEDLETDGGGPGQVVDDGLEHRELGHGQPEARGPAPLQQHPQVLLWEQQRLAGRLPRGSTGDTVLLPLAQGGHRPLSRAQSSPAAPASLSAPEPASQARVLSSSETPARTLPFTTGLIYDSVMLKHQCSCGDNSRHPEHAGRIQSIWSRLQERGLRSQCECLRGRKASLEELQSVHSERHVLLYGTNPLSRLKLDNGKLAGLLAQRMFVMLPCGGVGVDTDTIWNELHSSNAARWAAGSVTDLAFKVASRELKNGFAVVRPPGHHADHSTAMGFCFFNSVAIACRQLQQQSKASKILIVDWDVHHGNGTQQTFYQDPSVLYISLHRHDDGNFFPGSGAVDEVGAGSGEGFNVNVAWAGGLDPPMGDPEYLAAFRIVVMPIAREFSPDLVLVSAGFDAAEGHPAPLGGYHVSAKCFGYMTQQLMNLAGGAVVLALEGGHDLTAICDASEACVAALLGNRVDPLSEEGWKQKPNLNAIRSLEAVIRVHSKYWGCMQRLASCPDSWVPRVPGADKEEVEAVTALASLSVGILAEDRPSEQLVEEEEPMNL

[1] = Tmax in Balb/c mouse at 50 mg/kg, po measured for 24 hrs by LC-MS/MS analysis; assay type: ADME, organism-based; conditions: in vivo
4T1 [2] = assay: Antitumor activity against mouse 4T1 cells implanted in Balb/c mouse assessed as tumor weight at 50 mg/kg, po administered daily for 15 days; assay type: functional; conditions: time 15 day
4T1 [3] = assay: Antitumor immunity against mouse 4T1 cells implanted in Balb/c mouse assessed as increase in CD3+ T cells in tumor tissue at 25 mg/kg, po administered daily for 15 days by flow cytometry; assay type: functional, organism-based; conditions: time 15.0 day
4T1 [4] = assay: Antitumor immunity against mouse 4T1 cells implanted in Balb/c mouse assessed as increase in CD4+ T cells in tumor tissue at 25 mg/kg, po administered daily for 15 days by flow cytometry; assay type: functional, organism-based; conditions: time 15.0 day
MDA-MB-231 = assay: Cytotoxicity against human MDA-MB-231 cells assessed as reduction in cell viability incubated for 72 hrs by SRB assay; assay type: functional, cell-based; conditions: MDA-MB-231, 72 h
[5] = Toxicity against Balb/c mouse implanted with mouse 4T1 cells assessed as effect on morphological changes in kidneys at 25 to 50 mg/kg, po administered daily for 15 days by Hematoxylin-Eosin staining based analysis; assay type: organism-based; conditions: in vivo, 360 h, dose 25-50 mg/kg, time 15 day
Mus musculus = assay: Induction of immunogenic cell death-associated DAMP release in tumor of Balb/c mouse implanted with mouse 4T1 cells assessed as extranuclear diffusion of HMGB1 by measuring decrease in red fluorescence aggregates at 25 to 50 mg/kg, po administered daily for 15 days by immunofluorescence analysis; assay type: functional, organism-based; conditions: dose 25-50 mg/kg, time 15.0 day
[6] = target: Rho-associated protein kinase 2 (Homo sapiens, UniProt O75116); assay: Inhibition of N-terminal GST-tagged human recombinant wild type ROCK2 (1 to 553 residues) expressed in baculovirus-infected Sf21 cells by HTRF KinEASE assay
Chain of Rho-associated protein kinase 2 (O75116 whole entry, the tested form may be a part): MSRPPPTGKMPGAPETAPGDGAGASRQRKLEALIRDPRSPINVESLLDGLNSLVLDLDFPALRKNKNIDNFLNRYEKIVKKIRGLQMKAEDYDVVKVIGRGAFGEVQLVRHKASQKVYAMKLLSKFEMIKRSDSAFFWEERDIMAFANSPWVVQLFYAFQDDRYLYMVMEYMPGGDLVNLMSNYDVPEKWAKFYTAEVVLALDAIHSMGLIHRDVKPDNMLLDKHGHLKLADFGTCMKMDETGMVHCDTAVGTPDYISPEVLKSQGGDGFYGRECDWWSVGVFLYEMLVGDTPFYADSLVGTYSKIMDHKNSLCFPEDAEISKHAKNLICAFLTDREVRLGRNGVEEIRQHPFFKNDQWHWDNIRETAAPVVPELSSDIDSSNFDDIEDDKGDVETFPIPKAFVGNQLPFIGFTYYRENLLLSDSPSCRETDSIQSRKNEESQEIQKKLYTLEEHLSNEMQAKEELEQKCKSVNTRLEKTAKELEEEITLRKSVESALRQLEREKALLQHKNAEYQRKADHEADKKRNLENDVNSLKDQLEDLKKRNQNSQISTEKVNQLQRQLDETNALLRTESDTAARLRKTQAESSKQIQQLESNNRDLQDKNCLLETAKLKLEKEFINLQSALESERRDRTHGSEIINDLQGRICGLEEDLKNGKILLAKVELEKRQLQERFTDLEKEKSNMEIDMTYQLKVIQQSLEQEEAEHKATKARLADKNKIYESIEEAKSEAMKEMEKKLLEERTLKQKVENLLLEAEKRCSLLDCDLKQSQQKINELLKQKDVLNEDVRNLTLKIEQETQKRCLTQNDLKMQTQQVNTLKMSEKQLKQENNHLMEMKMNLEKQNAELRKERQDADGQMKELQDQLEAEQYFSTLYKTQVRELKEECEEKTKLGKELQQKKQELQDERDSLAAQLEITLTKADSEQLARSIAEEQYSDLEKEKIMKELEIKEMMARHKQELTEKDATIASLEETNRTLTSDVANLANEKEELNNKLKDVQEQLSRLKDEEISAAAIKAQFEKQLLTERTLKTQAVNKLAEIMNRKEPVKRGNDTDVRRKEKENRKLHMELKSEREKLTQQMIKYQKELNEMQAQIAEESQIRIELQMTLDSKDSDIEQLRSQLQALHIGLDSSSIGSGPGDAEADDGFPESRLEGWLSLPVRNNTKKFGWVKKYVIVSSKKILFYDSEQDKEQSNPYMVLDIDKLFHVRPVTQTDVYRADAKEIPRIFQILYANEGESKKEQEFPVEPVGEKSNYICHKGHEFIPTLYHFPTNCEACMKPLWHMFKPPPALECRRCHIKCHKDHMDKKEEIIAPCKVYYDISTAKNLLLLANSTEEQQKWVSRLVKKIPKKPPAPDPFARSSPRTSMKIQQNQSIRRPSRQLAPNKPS

[7] = Toxicity against Balb/c mouse implanted with mouse 4T1 cells assessed as effect on morphological changes in liver at 25 to 50 mg/kg, po administered daily for 15 days by Hematoxylin-Eosin staining based analysis; assay type: organism-based; conditions: in vivo, 360 h, dose 25-50 mg/kg, time 15 day
[8] = target: Rho-associated protein kinase 1 (Homo sapiens, UniProt Q13464); assay: Inhibition of N-terminal GST-tagged human recombinant ROCK1 (17 to 535 residues) expressed in baculovirus-infected Sf9 cells by HTRF KinEASE assay
Chain of Rho-associated protein kinase 1 (Q13464 whole entry, the tested form may be a part): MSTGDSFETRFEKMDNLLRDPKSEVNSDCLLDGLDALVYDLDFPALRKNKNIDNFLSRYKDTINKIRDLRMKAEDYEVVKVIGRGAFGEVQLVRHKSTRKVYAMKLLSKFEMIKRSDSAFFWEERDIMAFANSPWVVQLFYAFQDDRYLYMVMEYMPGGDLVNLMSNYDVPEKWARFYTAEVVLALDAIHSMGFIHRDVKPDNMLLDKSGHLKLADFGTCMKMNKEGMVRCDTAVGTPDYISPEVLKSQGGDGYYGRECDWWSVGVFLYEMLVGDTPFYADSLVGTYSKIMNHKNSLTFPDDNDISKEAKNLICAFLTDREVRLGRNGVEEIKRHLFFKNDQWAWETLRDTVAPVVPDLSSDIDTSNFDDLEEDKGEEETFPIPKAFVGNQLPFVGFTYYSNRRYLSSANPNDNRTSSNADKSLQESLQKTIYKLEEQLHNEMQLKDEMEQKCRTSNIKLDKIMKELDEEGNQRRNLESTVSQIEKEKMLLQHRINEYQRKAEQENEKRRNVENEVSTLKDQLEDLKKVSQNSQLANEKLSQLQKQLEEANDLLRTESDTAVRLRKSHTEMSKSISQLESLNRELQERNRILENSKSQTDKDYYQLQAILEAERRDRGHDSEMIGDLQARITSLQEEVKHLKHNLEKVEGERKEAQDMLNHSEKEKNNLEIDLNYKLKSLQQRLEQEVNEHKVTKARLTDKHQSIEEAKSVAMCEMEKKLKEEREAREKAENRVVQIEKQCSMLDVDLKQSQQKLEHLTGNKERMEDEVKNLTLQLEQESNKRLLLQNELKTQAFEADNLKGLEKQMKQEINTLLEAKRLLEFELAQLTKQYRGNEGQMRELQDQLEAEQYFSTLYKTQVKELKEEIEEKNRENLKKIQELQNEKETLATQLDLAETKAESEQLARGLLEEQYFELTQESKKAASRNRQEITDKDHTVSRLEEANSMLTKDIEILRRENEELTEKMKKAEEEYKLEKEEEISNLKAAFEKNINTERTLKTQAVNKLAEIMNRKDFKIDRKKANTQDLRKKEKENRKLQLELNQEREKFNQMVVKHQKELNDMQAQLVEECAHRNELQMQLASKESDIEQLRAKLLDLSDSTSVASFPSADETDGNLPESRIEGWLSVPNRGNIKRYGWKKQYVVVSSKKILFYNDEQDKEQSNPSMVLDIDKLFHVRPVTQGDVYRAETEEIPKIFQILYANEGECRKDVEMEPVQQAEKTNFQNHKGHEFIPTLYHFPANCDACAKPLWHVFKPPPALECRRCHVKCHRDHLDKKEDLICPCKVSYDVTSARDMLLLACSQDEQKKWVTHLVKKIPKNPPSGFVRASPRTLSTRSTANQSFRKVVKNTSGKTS

Histone deacetylase 2 = Histone deacetylase 2 (Homo sapiens, UniProt Q92769); assay: Inhibition of HDAC2 (unknown origin) using Ac-Leu-Gly-Lys(Ac)-AMC as substrate preincubated for 5 mins followed by substrate addition for 30 mins and measured following trypsin addition for 30 mins by fluorescence based analysis
Chain of Histone deacetylase 2 (Q92769 whole entry): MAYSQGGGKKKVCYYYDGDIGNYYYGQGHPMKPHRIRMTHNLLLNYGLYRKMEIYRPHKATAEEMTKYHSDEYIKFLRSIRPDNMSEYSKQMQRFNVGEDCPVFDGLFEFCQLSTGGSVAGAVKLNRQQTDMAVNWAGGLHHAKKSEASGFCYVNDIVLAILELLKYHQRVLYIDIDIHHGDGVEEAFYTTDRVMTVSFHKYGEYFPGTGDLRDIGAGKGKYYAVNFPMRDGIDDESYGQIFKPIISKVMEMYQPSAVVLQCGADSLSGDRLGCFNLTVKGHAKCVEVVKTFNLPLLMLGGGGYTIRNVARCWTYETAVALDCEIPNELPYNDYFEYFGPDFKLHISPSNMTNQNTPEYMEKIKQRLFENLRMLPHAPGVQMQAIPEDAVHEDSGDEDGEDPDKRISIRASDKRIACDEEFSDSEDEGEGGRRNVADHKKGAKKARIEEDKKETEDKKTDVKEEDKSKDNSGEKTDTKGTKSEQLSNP

[9] = Tmax in Balb/c mouse at 1 mg/kg, iv measured for 24 hrs by LC-MS/MS analysis; assay type: ADME, organism-based; conditions: in vivo

`O=C(CCCCCCNC(=O)c1cc2cc(-c3cn[nH]c3)ccc2s1)NO` gave an IC50 (Histone deacetylase 7) of over 10000 nM, a Tmax [1] of 1.8 min and an Activity (4T1 [2]) of 0.16 g. The Activity (4T1 [3]) was “Active”, the Activity (4T1 [4]) was “Active” and the IC50 (MDA-MB-231) was 370 nM. The Activity [5] was “Non-Toxic”, the Activity (Mus musculus) was “Active” and the IC50 [6] was 255 nM. For the same compound, the Activity [7] was “Non-Toxic”, the IC50 [8] was 58.2 nM and the IC50 (Histone deacetylase 2) was 8.03 nM. It also gave a Tmax [9] of 4.8 min.
